Measured values published in patent US5731452A, “7-thiaprostaglandins and method of production thereof” (Teijin Limited, priority 1994, dated 1998).

Tested on: cell migration induced by MCP-1 in human promonocytic leukemia cell line, THP-1
Assay: Activity for inhibiting cell migration induced by MCP-1 (THP-1 cells)
Type: cell-based
Details: 20 ng/ml recombinant human MCP-1, 37° C., two hours
Experimental: The cell migration induced by the monocyte chemoattractant protein MCP-1/MCAF was measured for the purpose of investigating the activity of the tested compounds shown in Table 1 in inhibiting cell migration by the following manner in accordance with the method of Falk et al. (J. Immunol. Methods, 33, 239-247 (1980)) using human promonocytic leukemia cell line, THP-1 (ATCC TIB203). That is, THP-1 cells diluted to 2×10^6 /ml by 10% fetal calf serum: FCS-containing RPMI-1640 medium (made by Flow Laboratories) were added to the upper chamber (200 μl) of the 96-well microchemotaxis chamber (made by Neuroprobe Inc.) while recombinant human MCP-1 (made by Peprotech Co.) diluted by the same medium to a final concentration of 20 ng/ml was added to the bottom chamber (35 μl). A polycarbonate filter (pore size of 5 μm, PVP-free, made by Neuroprobe Co) was affixed between the two. Incubation was performed at 37° C. in the presence of 5% CO2 for two hours. The filter was taken out, then the cells migrating to the bottom surface of the filter were fixed and stained by a Diff Quick solution (made by International Reagents Co.), then were measured by a plate reader (made by Molecular Device Co.) at a measurement wavelength of 550 nm. The mean value of three wells was determined and used as the indicator of the number of the migrating cells. At this time, the text compounds were added at various concentrations along with the THP-1 cells to the top chambers and the activity in inhibiting cell migration was determined. The percent of inhibition of cell migration was found by dividing the {(number of migrating cells caused by the MCP-1 added to the bottom chamber in the case of the test compound being added to the top chamber)--(number of migrating cells in the case of no test compound being added to the top chamber and no MCP-1 being added to the bottom chamber)} by the {(number of migrating cells caused by the MCP-1 added to the bottom chamber in the case of no test compound being added to the top chamber)--(number of migrating cells in the case of no test compound being added to the top chamber and no MCP-1 being added to the bottom chamber)}.

SMILES | IC50
CCCC(=O)OC1=C(SCCCCCC(=O)OC)[C@@H](/C=C/C(O)Cc2ccc(C)cc2)[C@H](O)C1 (stereo partly drawn) [drawing 148] | > 10000 nM
CCCC(=O)OC1=C(SCCCCCC(=O)OC)[C@@H](/C=C/C(O)CCCc2ccccc2)[C@H](O)C1 (stereo partly drawn) [drawing 146] | 300 nM
CCCC(=O)OC1=C(SCCCCCC(=O)OC)[C@@H](/C=C/C(O)Cc2cccc(Cl)c2)[C@H](O)C1 (stereo partly drawn) [drawing 155] | 8 nM
CCCC(=O)OC1=C(CCCCCCC(=O)OC)[C@@H](/C=C/C(O)Cc2ccccc2)[C@H](O)C1 (stereo partly drawn) [drawing 167] | 4000 nM
CCCC(=O)OC1=C(SCCCCCC(=O)OC)[C@@H](/C=C/C(O)C(C)c2ccccc2)[C@H](O)C1 (stereo partly drawn) [drawing 140] | 0.021 nM
CCCC(=O)OC1=C(SCCCCCC(=O)OC)[C@@H](/C=C/C(O)Cc2ccc(Cl)cc2)[C@H](O)C1 (stereo partly drawn) [drawing 166] | < 1 nM
CCCC(=O)OC1=C(SCCCCCC(=O)OC)[C@@H](/C=C/C(O)Cc2cccc(OC)c2)[C@H](O)C1 (stereo partly drawn) [drawing 158] | 2.3 nM
CCCC(=O)OC1=C(SCCCCCC(=O)OC)[C@@H](/C=C/C(O)Cc2ccccc2C)[C@H](O)C1 (stereo partly drawn) [drawing 162] | 4.4 nM
CCCC(=O)OC1=C(CCCCCCC(=O)OC)[C@@H](/C=C/C(O)Cc2ccccc2)[C@H](O)C1 (stereo partly drawn) [drawing 168] | 5 nM
CCCC(=O)OC1=C(SCCCCCC(=O)OC)[C@@H](/C=C/C(O)C(C)c2ccccc2)[C@H](O)C1 (stereo partly drawn) [drawing 139] | 6 nM
CCCC(=O)OC1=C(SCCCCCC(=O)OC)[C@@H](/C=C/C(O)Cc2ccc(C)cc2)[C@H](O)C1 (stereo partly drawn) [drawing 149] | 100 nM
CCCC(=O)OC1=C(SCCCCCC(=O)OC)[C@@H](/C=C/C(O)Cc2cccc(C)c2)[C@H](O)C1 (stereo partly drawn) [drawing 154] | 1.2 nM
CCCC(=O)OC1=C(SCCCCCC(=O)OC)[C@@H](/C=C/C(O)Cc2cccc(C)c2)[C@H](O)C1 (stereo partly drawn) [drawing 153] | 600 nM
CCCC(=O)OC1=C(SCCCCCC(=O)OC)[C@@H](/C=C/C(O)C(c2ccccc2)c2ccccc2)[C@H](O)C1 (stereo partly drawn) [drawing 142] | 1300 nM
CCCC(=O)OC1=C(SCCCCCC(=O)OC)[C@@H](/C=C/C(O)Cc2ccccc2C)[C@H](O)C1 (stereo partly drawn) [drawing 161] | 190 nM
CCCC(=O)OC1=C(SCCCCCC(=O)OC)[C@@H](/C=C/C(O)Cc2cccc(Cl)c2)[C@H](O)C1 (stereo partly drawn) [drawing 156] | 0.4 nM
CCCC(=O)OC1=C(SCCCCCC(=O)OC)[C@@H](/C=C/C(O)C(C)(C)c2ccccc2)[C@H](O)C1 (stereo partly drawn) [drawing 135] | 100 nM
CCCC(=O)OC1=C(SCCCCCC(=O)OC)[C@@H](/C=C/C(O)Cc2cccc(C(=O)OC)c2)[C@H](O)C1 (stereo partly drawn) [drawing 159] | 230 nM
CCCC(=O)OC1=C(SCCCCCC(=O)OC)[C@@H](/C=C/C(O)Cc2cccc(OC)c2)[C@H](O)C1 (stereo partly drawn) [drawing 157] | 33 nM
CCCC(=O)OC1=C(SCCCCCC(=O)OC)[C@@H](/C=C/C(O)Cc2ccsc2)[C@H](O)C1 (stereo partly drawn) [drawing 152] | 0.08 nM
CCCC(=O)OC1=C(SCCCCCC(=O)OC)[C@@H](/C=C/C(O)C(c2ccccc2)c2ccccc2)[C@H](O)C1 (stereo partly drawn) [drawing 143] | > 5000 nM
CCCC(=O)OC1=C(SCCCCCC(=O)OC)[C@@H](/C=C/C(O)CCCc2ccccc2)[C@H](O)C1 (stereo partly drawn) [drawing 147] | 4.3 nM
CCCC(=O)OC1=C(SCCCCCC(=O)OC)[C@@H](/C=C/C(O)Cc2ccc([N+](=O)[O-])cc2)[C@H](O)C1 (stereo partly drawn) [drawing 164] | 3.6 nM
CCCC(=O)OC1=C(SCCCCCC(=O)OC)[C@@H](/C=C/C(O)Cc2ccc(Cl)cc2)[C@H](O)C1 (stereo partly drawn) [drawing 165] | < 100 nM
CCCC(=O)OC1=C(SCCCCCC(=O)OC)[C@@H](/C=C/C(O)Cc2ccc([N+](=O)[O-])cc2)[C@H](O)C1 (stereo partly drawn) [drawing 163] | < 100 nM
CCCC(=O)OC1=C(SCCCCCC(=O)OC)[C@@H](/C=C/C(O)Cc2ccsc2)[C@H](O)C1 (stereo partly drawn) [drawing 151] | 90 nM
CCCC(=O)OC1=C(SCCCCCC(=O)OC)[C@@H](/C=C/C(O)Cc2cccc(C(=O)OC)c2)[C@H](O)C1 (stereo partly drawn) [drawing 160] | 2.3 nM
CCCC(=O)OC1=C(SCCCCCC(=O)OC)[C@@H](/C=C/C(O)C(C)(C)c2ccccc2)[C@H](O)C1 (stereo partly drawn) [drawing 136] | 13 nM

Same assay, conditions: Homo sapiens, THP-1, 2 h, 20 ng/ml recombinant human MCP-1, 37° C., two hours

SMILES | IC50
CCCCC(C)C[C@H](O)/C=C/[C@@H]1C(SCCC/C=C/C(=O)OC)=C(OC(=O)CCC)C[C@H]1O (stereo partly drawn) | 6 nM
CCCCC[C@H](O)/C=C/[C@@H]1C(SCCCCCC(=O)OC)=C(OC(=O)[C@H](Cc2ccccc2)NC(=O)OCc2ccccc2)C[C@H]1O | 0.22 nM
CCCC(=O)OC1=C(SCCCCCC(=O)OC)[C@@H](/C=C/C(O)Cc2ccccc2)[C@H](O)C1 (stereo partly drawn) [drawing 131] | 8.3 nM
CCCCC(C)C[C@H](O)/C=C/[C@@H]1C(SCCCOCC(=O)OC)=C(OC(=O)CCC)C[C@H]1O (stereo partly drawn) [drawing 141] | 2.1 nM
CCCCC(C)(O)C/C=C/[C@@H]1C(SCCCCCC(=O)OC)=C(OC(=O)CCC)C[C@H]1O (stereo partly drawn) | 1.7 nM
CCCCCC(O)CC[C@@H]1C(SCCCCCC(=O)OC)=C(OC(=O)CCC)C[C@H]1O (stereo partly drawn) | 0.14 nM
CCCC(=O)OC1=C(SCCCCCC(=O)OC)[C@@H](/C=C/C(O)CCc2ccccc2)[C@H](O)C1 (stereo partly drawn) | 8.5 nM
CCCC(=O)OC1=C(SCCCCCC(=O)OC)[C@@H](/C=C/[C@@H](O)C2CCCC2)[C@H](O)C1 [drawing 121] | 0.51 nM
CCCC(=O)OC1=C(SCCCCCC(=O)OC)[C@@H](/C=C/[C@@H](O)CCOCC)[C@H](O)C1 | 120 nM
CCCCC[C@H](O)/C=C/[C@@H]1C(SCCCCCC(=O)O)=C(OC(=O)CCC)C[C@H]1O [drawing 126] | 0.81 nM
CCCC(=O)OC1=C(SCCCCCC(=O)OC)[C@@H](/C=C/[C@@H](O)Cc2ccccc2)[C@H](O)C1 | 1.1 nM
CCCC(=O)OC1=C(SCCCCCC(=O)OC)[C@@H](/C=C/[C@@H](O)C2CCCCC2)[C@H](O)C1 [drawing 123] | 2.5 nM
CCCC(=O)OC1=C(SCCCCCC(=O)OC)[C@@H](/C=C/C(O)C2CCCCC2)[C@H](O)C1 (stereo partly drawn) | 100 nM
CCCC(=O)OC1=C(SCCCCCC(=O)OC)[C@@H](/C=C/C(O)c2ccccc2)[C@H](O)C1 (stereo partly drawn) | > 1000 nM
CCCC(=O)OC1=C(SCCCCCC(=O)OC)[C@@H](/C=C/C(O)[C@H](C)c2ccccc2)[C@H](O)C1 (stereo partly drawn) [drawing 137] | 3 nM
CCCCC(C)C[C@H](O)/C=C/[C@@H]1C(SCCCCCC(=O)OC)=C(OC(=O)c2ccccc2)C[C@H]1O (stereo partly drawn) [drawing 129] | 810 nM

Tested on: rat platelet
Assay: Rat platelet aggregation inhibiting activity
Type: cell-based
Details: rat platelet rich plasma; adenosine 2-phosphate induced; 37° C., one minute
Experimental: Wistar rats (males, approximately 400 g) were made to fast for one day, the entire blood was removed from the chest artery under anesthesia by ether, then a 1/10 volume of 3.8% aqueous solution of sodium citrate was added and immediately mixed in. The solution was centrifuged at 1000 rpm for 10 minutes, then the upper layer was used as the platelet rich plasma. The lower layer was centrifuged at 3000 rpm for 10 minutes and the upper layer of that was used as the platelet poor plasma. The platelet rich plasma was diluted by the platelet poor plasma to give a number of platelets of 3.5×10^8 /mm^3. This was used for the measurement. Note that the measurement of the platelets was performed using an automatic blood cell counter MEK-4500 (Nihon Koden). The measurement of the platelet aggregation was performed by measuring the turbidity using an NBS HEMA TRACER 801 (M.C. Medical). 90 μl of the platelet solution was inserted in a cuvette, then 5 μl each of the test compounds was added to give the target final concentration. The result was heated for one minute at 37° C., then 5 μl of a 100 μM aqueous solution of adenosine 2-phosphate (M.C. Medical) was added to induce platelet aggregation. The aggregation inhibiting activity was found from the following formula.
Aggregation inhibiting rate (%)={1-(maximum change of turbidity at time of
addition of drug)/(maximum change of turbidity at time of non-addition of
Further, the concentration of the compound giving 50% inhibition was used as the IC50.

SMILES | IC50
CCCCC(C)C[C@H](O)/C=C/[C@@H]1C(SCCCCCC(=O)OC)=C(OC(=O)CCC)C[C@H]1O (stereo partly drawn) [drawing 170] | 129 nM
CCCC(=O)OC1=C(SCCCCCC(=O)OC)[C@@H](/C=C/C(O)CC(C)C)[C@H](O)C1 (stereo partly drawn) | 380 nM
CCCC(=O)OC1=C(SCCCCCC(=O)OC)[C@@H](/C=C/[C@@H](O)C2CCCC2)[C@H](O)C1 [drawing 176] | 284 nM
CCCCC[C@H](O)/C=C/[C@@H]1C(SCCCCCC(=O)OC)=C(OC(=O)CCC)C[C@H]1O | 629 nM
CCCC(=O)OC1=C(SCCCCCC(=O)OC)[C@@H](/C=C/C(O)CCCc2ccccc2)[C@H](O)C1 (stereo partly drawn) [drawing 180] | 290 nM
CCCCC(C)C[C@H](O)/C=C/[C@@H]1C(SCCCCCC(=O)OC)=C(OC(=O)c2ccccc2)C[C@H]1O (stereo partly drawn) [drawing 179] | 700 nM
CCCCC(C)C[C@H](O)/C=C/[C@@H]1C(SCCCCCC(=O)OC)=C(OC(=O)C(C)(C)C)C[C@H]1O (stereo partly drawn) | 1280 nM
CCCCC(C)C[C@H](O)/C=C/[C@@H]1C(SCCCCCC(=O)OC)=C(OC(=O)C(C)C)C[C@H]1O (stereo partly drawn) | 500 nM
CCCC(=O)OC1=C(SCCCCCC(=O)OC)[C@@H](/C=C/[C@@H](O)C2CCCCC2)[C@H](O)C1 [drawing 177] | 73 nM
CCCCOC(=O)CCCCCSC1=C(OC(=O)CCC)C[C@@H](O)[C@@H]1/C=C/[C@@H](O)CC(C)CCCC (stereo partly drawn) | 221 nM
